Laboratory results: US20240374738A1, “BIFUNCTIONAL COMPOUND CAPABLE OF DEGRADING RECEPTOR TYROSINE KINASE AND APPLICATION THEREOF” (TAIBIDI PHARMACEUTICAL TECHNOLOGY (SHIJIAZHUANG) CO., LTD., priority 2023, published 2024)

Tests used:
Assay type in all cases: cell-based
MKN45 = test: Growth inhibition of gastric cancer cells MKN45 (CCK-8); details: Homo sapiens, MKN-45, half inhibitory concentration, 72 hours
Protocol: (§1) Inoculate gastric cancer cells (SNU5 or MKN45) into a 96 well plate at a concentration of […], with 100 μl added to each well. Incubate for 30 minutes. Observe the cell status under a microscope. Prepare compounds, weigh a certain amount of the series compounds or reference drug cabozantinib of this patent, first prepare a high concentration mother liquor with pure DMSO, and use gradient dilution method to prepare a concentration of 200 μM, 60 μM, 20 μM, 6 μM, 2 μM, 600 nM, 200 nM, 0 nM drug solution, shake to make it fully mixed. The control group was prepared with cabozantinib using the same solvent and method.
(§2) After preparation, add 1 μl of drug solution to each well of the 96 well plate, and then add 100 μl of culture medium. Repeat each dose three times. Gently shake to allow the cells and medication to come into full contact and incubate in the incubator for 72 hours. 72 hours later, remove and color with CCK-8 reagent kit. Add 20 μl of CCK-8 reagent to each well, gently shake well, and incubate in the incubator for 1 hour. After 1 hour, remove and measure the absorbance of each well using an enzyme-linked immunosorbent assay (ELISA) reader at a wavelength of 450 nm.
(§3) According to the formula: Cell growth inhibition rate=[1−(absorbance of experimental group absorbance of culture medium control group)/(absorbance of blank control group−absorbance of culture medium control group)]×100%. It can be concluded that the compound has the ability to inhibit the growth of gastric cancer cells at the current dose and time.
(§4) Draw a graph based on the gradient of concentration and use GraphPad Prism 9 software (GraphPad Software, La Jolla, CA) to calculate the maximum inhibitory concentration (IC50) at 50%.
(§5) Referring to steps 1 and 2 of this embodiment, the inhibitory effect of the compound of the present invention on the growth of cancer cells and the degradation effect of target proteins were measured, and the following results were obtained (see Table 2 below).
(§6) The growth inhibitory effects of the compound of the present invention on tumor cell lines MKN45 and SNU5 were measured. The activity is expressed as half inhibitory concentration (C50). The results are shown in Table 2 below; When the half inhibitory concentration is less than or equal to 100 nM, the compound activity is labeled as “++++”; When the half inhibitory concentration is greater than 100 nM and less than 500 nM, the compound activity is labeled as […] and less than 1000 nM, the compound activity is labeled as “++”; When the half inhibitory concentration is greater than 1000 nM and less than 3000 nM, the compound activity is marked as “+”; When the half inhibitory concentration is greater than 3000 nM, the compound activity is marked as […]

SNU5 = test: Growth inhibition of gastric cancer cells SNU5 (CCK-8); details: Homo sapiens, SNU-5, half inhibitory concentration, 72 hours
Protocol: as §1, §2, §3, §4, §5, §6

DDR1 = DDR1 (Homo sapiens, UniProt Q08345); test: Degradation of DDR1 in tumor cell MKN45 (Western blot); set-up: The degradation activity of the compounds against DDR1 in the MKN45 cell line; endogenous in cells; host or cells: MKN45; details: MKN-45, maximum degradation percentage, MKN45 cells, 24 hours
Sequence of DDR1 (Q08345 19-913): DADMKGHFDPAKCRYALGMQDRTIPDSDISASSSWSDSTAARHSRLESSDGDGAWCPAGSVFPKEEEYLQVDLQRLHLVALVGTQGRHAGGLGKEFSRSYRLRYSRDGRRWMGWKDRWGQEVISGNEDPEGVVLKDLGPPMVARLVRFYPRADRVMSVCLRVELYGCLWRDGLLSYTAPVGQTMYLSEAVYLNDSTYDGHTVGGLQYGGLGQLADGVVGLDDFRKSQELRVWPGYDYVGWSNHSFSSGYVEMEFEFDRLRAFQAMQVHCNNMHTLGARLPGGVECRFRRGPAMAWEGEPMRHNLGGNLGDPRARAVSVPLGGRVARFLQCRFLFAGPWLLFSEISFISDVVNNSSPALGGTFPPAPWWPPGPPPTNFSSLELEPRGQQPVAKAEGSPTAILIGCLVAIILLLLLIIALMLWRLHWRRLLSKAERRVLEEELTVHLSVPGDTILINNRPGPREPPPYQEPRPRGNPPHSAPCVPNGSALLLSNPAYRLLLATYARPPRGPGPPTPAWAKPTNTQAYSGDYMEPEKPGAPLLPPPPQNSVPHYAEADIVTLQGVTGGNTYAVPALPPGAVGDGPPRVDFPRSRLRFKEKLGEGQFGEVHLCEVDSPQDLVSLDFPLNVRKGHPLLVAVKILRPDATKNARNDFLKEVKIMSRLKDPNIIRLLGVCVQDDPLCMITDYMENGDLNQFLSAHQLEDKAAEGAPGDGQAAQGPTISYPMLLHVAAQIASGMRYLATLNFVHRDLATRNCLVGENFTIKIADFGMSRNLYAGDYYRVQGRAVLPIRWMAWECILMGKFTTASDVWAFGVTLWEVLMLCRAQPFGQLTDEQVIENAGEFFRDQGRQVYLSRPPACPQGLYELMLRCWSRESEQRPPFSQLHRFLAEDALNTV
Protocol: Western blot experiment: Take gastric cancer cells (MKN45) and inoculate them into a 6-well plate at a concentration of […], adding 2 ml to each well and incubating for 24 hours.
The next day, observe the cells under a microscope to confirm their status. Prepare compounds, weigh a certain amount of the series compounds or reference drug cabozantinib from this patent, first prepare a high concentration mother liquor with pure DMSO, and use gradient dilution method to prepare compound concentrations of 2 mM, 200 μM, 100 μM, 20 μM, 2 μM, 200 nM, and 0 nM. The final concentration of DMSO is 0.5%. Shake to thoroughly mix. Add 10 μl of solution to each well. After incubation for 24 hours, remove the cells and use a pipette to aspirate the suspended cells into a 1.5 ml centrifuge tube. Centrifuge at 5000 rpm for 10 minutes to precipitate the cells. Carefully remove the cell precipitate from the culture medium, add 1 ml of PBS and shake slightly. After repeated cleaning for 3 times, dry the residue. Add 150 μl of RIPA lysate pre mixed with 1% PMSF, blow to allow the lysate to fully contact the cells, and incubate on ice for 10 minutes. Centrifuge at 12000 rpm for 10 minutes, extract the supernatant, use the BCA protein quantification kit to determine and homogenize the sample loading.
Mix BCA-A in a 50:1 ratio Prepare working solution with B solution, dilute the sample by 5 times, then pipette 20 μl onto a 96 well ELISA plate. Add 200 μl of pre mixed BCA working solution and incubate at 37° C. for 20 minutes. Measure the A562 nm absorbance value using an ELISA reader and substitute it into the protein standard curve formula to obtain the sample concentration. After calculating the required volume for loading […] of sample, divide the sample into 1.5 ml centrifuge tubes. Add 10 μl of sample buffer to each tube and mix well. Heat in a 95° C. metal bath for 5 minutes to denature the protein.
Take 4-20% gradient pre adhesive and fix it on the adhesive rack. Add electrophoresis solution to the slot and remove the comb, Marker and protein samples were loaded, and after 30 minutes of electrophoresis at 80V, the voltage was adjusted to 120V for electrophoresis, The marker band stops electrophoresis at the forefront of the gel. Take out the adhesive block and cut it to the appropriate size, The PVDF membrane was cut and activated in methanol, and after activation, the PVDF membrane was equilibrated in a membrane transfer equilibrium solution for 1 minute. Using sponge pads The sequence of PVDF film, adhesive, and sponge pad is placed in the splint and placed in the eBlot equipment for rapid wet rotation. Remove the membrane and seal it in 5% skim milk powder dissolved in 1×TBST for 1 hour. Cut the membrane according to the molecular weight of the target protein and internal reference protein, and place it in primary antibody diluted with 1×TBST. Shake overnight at 4° C.
The next day, transfer the band to 1×TBST for 3 washes, then add a specific dilution of the secondary antibody and shake it for 1.5 hours. Transfer the band again to 1×TBST for 3 washes, prepare ECL color solution, place the membrane in the imaging system, cover the surface with ECL color solution, and take photos of the membrane using the imaging system.
Using the SHST analysis system to analyze the results, measure the grayscale values of each band of the target protein and internal reference protein. Normalize the grayscale values of the target protein/corresponding lane GAPDH grayscale values, and perform quantitative analysis according to the protein amount=experimental group grayscale value/blank control group grayscale value.
The activity of the compound of the present invention in degrading DDR in tumor cell line MKN45 was measured. […]

SMILES | IC50 (MKN45) [nM] | IC50 (SNU5) [nM] | Dmax (DDR1) [%]
COc1cc2c(Oc3ccc(NC(=O)C4(C(=O)Nc5ccc(F)cc5)CC4)cc3)ccnc2cc1N1CCC(CN2C[C@@H]3C[C@H]2CN3CC(=O)Nc2cc3c(cn2)C(=O)N(C2CCC(=O)NC2=O)C3)CC1 (stereo partly drawn) [TPD12100] | ≤ 100 | ≤ 100 | 65 to 75
COc1cc2c(Oc3ccc(NC(=O)C4(C(=O)Nc5ccc(F)cc5)CC4)cc3)ccnc2cc1NCC(=O)N1CCC(CN2CCN(c3ccc(N(C)C4CCC(=O)NC4=O)nc3F)CC2)CC1 (stereo not drawn) [TPD5773] | 500 to 1000 | 100 to 500 | 65 to 75
O=C1CCC(N2Cc3cc(NC(=O)CCN4CC5CC(C4)N5CC4CCN(c5cc6nccc(Oc7ccc(NC(=O)C8(C(=O)Nc9ccc(F)cc9)CC8)cc7)c6cc5F)CC4)ccc3C2=O)C(=O)N1 (stereo not drawn) [TPD12215] | ≤ 100 | ≤ 100 | 75 to 85
O=C1CCC(N2Cc3cc(NC(=O)CN4C[C@@H]5C[C@H]4CN5CC4CCN(c5cc6nccc(Oc7ccc(NC(=O)C8(C(=O)Nc9ccc(F)cc9)CC8)cc7)c6cc5F)CC4)ncc3C2=O)C(=O)N1 (stereo partly drawn) [TPD12102] | ≤ 100 | ≤ 100 | 75 to 85
COc1cc2nccc(Oc3ccc(NC(=O)C4(C(=O)Nc5ccc(F)cc5)CC4)cc3)c2cc1OC [cabozantinib, reference compound] | ≤ 100 | ≤ 100 | < 50
Cc1nc(CCOC2CCN(CCC(=O)Nc3cccc4c3CN(C3CCC(=O)NC3=O)C4=O)CC2)cc(Nc2ncc(C(=O)Nc3c(C)cccc3Cl)s2)n1 (stereo not drawn) [TPD10050] | 500 to 1000 | 100 to 500 | 75 to 85
COc1cc2c(Oc3ccc(NC(=O)C4(C(=O)Nc5ccc(F)cc5)CC4)cc3)ccnc2cc1N1CCC(CN2C[C@H]3C[C@@H]2CN3CCC(=O)Nc2cc3c(cn2)C(=O)N(C2CCC(=O)NC2=O)C3)CC1 (stereo partly drawn) [TPD12110] | ≤ 100 | ≤ 100 | 75 to 85
COc1cc2c(Oc3ccc(NC(=O)C4(C(=O)Nc5ccc(F)cc5)CC4)cc3)ccnc2cc1N1CCC(OCCC(=O)Nc2ccc3c(c2)C(=O)N(C2CCC(=O)NC2=O)C3=O)CC1 (stereo not drawn) [TPD5706] | 100 to 500 | 100 to 500 | 75 to 85
COc1cc2c(Oc3ccc(NC(=O)C4(C(=O)Nc5ccc(F)cc5)CC4)cc3)ccnc2c(F)c1N1CCC(CN2C3CC2CN(CCC(=O)Nc2cc4c(cn2)C(=O)N(C2CCC(=O)NC2=O)C4)C3)CC1 (stereo not drawn) [TPD12139] | ≤ 100 | ≤ 100 | 75 to 85
COc1cc2c(Oc3ccc(NC(=O)C4(C(=O)Nc5ccc(F)cc5)CC4)cc3)ccnc2cc1NC(=O)CC1CCN(C(=O)CN2CCN(c3ccc4c(c3)C(=O)N(C3CCC(=O)NC3=O)C4=O)CC2)CC1 (stereo not drawn) [TPD5745] | 500 to 1000 | 500 to 1000 | 65 to 75
COc1cc2c(Oc3ccc(NC(=O)C4(C(=O)Nc5ccc(F)cc5)CC4)cc3)ccnc2cc1-c1cnn(C2CCN(C(=O)CCCCC(=O)N[C@H](C(=O)N3C[C@H](O)C[C@H]3C(=O)NCc3ccc(-c4scnc4C)cc3)C(C)(C)C)CC2)c1 [TPD5505] | 1000 to 3000 | 500 to 1000 | 75 to 85
COc1cc2c(Oc3ccc(NC(=O)C4(C(=O)Nc5ccc(F)cc5)CC4)cc3)ccnc2cc1N1CCC(CN2CC(N[C@H](C(=O)N3C[C@H](O)C[C@H]3C(=O)NCc3ccc(-c4scnc4C)cc3)C(C)(C)C)C2)CC1 [TPD5431] | 1000 to 3000 | 1000 to 3000 | 65 to 75
COc1cc2c(Oc3ccc(NC(=O)C4(C(=O)Nc5ccc(F)cc5)CC4)cc3)ccnc2cc1N1CCC(CN2CC3CC(C2)N3CCNc2cc3c(cn2)C(=O)N(C2CCC(=O)NC2=O)C3)CC1 (stereo not drawn) [TPD12082] | 100 to 500 | ≤ 100 | 65 to 75
COc1cc2c(Oc3ccc(NC(=O)C4(C(=O)Nc5ccc(F)cc5)CC4)cc3)ccnc2cc1NCC(=O)N[C@H](C(=O)N1C[C@H](O)C[C@H]1C(=O)NCc1ccc(-c2scnc2C)cc1)C(C)(C)C [TPD5417] | 500 to 1000 | 1000 to 3000 | 65 to 75
COc1cc2c(Oc3ccc(NC(=O)C4(C(=O)Nc5ccc(F)cc5)CC4)cc3)ccnc2cc1N1CCC(CN2C[C@@H]3C[C@H]2CN3CCNc2cc3c(cn2)C(=O)N(C2CCC(=O)NC2=O)C3)CC1 (stereo partly drawn) [TPD12096] | ≤ 100 | ≤ 100 | 65 to 75
COc1cc2c(Oc3ccc(NC(=O)C4(C(=O)Nc5ccc(F)cc5)CC4)cc3)ccnc2cc1N1CCN(CCCC(=O)N[C@H](C(=O)N2C[C@H](O)C[C@H]2C(=O)NCc2ccc(-c3scnc3C)cc2)C(C)(C)C)CC1 [TPD5457] | ≤ 100 | ≤ 100 | 75 to 85
COc1cc2c(Oc3ccc(NC(=O)C4(C(=O)Nc5ccc(F)cc5)CC4)cc3)ccnc2cc1COCCN1CCN(C(=O)CNc2cccc3c2C(=O)N(C2CCC(=O)NC2=O)C3=O)CC1 (stereo not drawn) [TPD5317] | 100 to 500 | 100 to 500 | 65 to 75
COc1cc2c(Oc3ccc(NC(=O)C4(C(=O)Nc5ccc(F)cc5)CC4)cc3)ccnc2cc1NC(=O)CCCN1CCC(CN2CCN(c3ccc(NC4CCC(=O)NC4=O)cc3)CC2)CC1 (stereo not drawn) [TPD5752m] | 100 to 500 | 100 to 500 | > 85
COc1cc2c(Oc3ccc(NC(=O)C4(C(=O)Nc5ccc(F)cc5)CC4)cc3)ccnc2cc1COCCN1CCC(OCCCNc2ccc3c(c2)C(=O)N(C2CCC(=O)NC2=O)C3=O)CC1 (stereo not drawn) [TPD5315] | 100 to 500 | 100 to 500 | > 85
COc1cc2c(Oc3ccc(NC(=O)C4(C(=O)Nc5ccc(F)cc5)CC4)cc3)ccnc2cc1N1CCC(CN2C[C@H]3C[C@@H]2CN3CC(=O)Nc2cc3c(cn2)C(=O)N(C2CCC(=O)NC2=O)C3)CC1 (stereo partly drawn) [TPD12101] | ≤ 100 | ≤ 100 | > 85
COc1cc2c(Oc3ccc(NC(=O)C4(C(=O)Nc5ccc(F)cc5)CC4)cc3)ccnc2cc1NC(=O)c1cnc(N2CCC(CN3CCN(c4ccc5c(c4)C(=O)N(C4CCC(=O)NC4=O)C5=O)CC3)CC2)nn1 (stereo not drawn) [TPD5714] | 100 to 500 | ≤ 100 | 65 to 75
